{"source": "patent US7056913B2", "about": "“C8—linked pyrrolo[2,1-c][1,4]benzodiazepine-acridone/acridine hybrids” (Council of Scientific and Industrial Research, priority 2004, dated 2006)", "key": {"[1]": {"tested_on": "Breast cancer cell lines", "test": "NCI in vitro cytotoxicity, SRB assay, cancer type average", "format": "cell-based, human", "conditions": "average of six to nine cell lines", "protocol": "(§1) Cytotoxicity: 7-methoxy-8-[3′-(4″-acridonylcarboxamido)propyl]-oxy-(11aS)1,2,3,11a-tetrahydro-5H-pyrrolo[2,1-c][1,4]benzodiazepin-5-one of formula IV was evaluated for primary anti-cancer activity (Table 1) and in vitro against sixty human tumour cells derived from nine cancer types (leukemia, non-small-cell lung, colon, CNS, melanoma, ovarian, prostate, and breast cancer). For each compound, dose response curves for each cell line were measured at a minimum of five concentrations at 10 fold dilutions. A protocol of 48 h continuous drug expose was used and a sulforhodamine B (SRB) protein assay was used to estimate cell viability or growth. The concentration causing 50% cell growth inhibition (GI50), total cell growth inhibition (TGI, 0% growth) and 50% cell death (LC50, −50% growth) compared with the control was calculated.\n(§2) Each cancer type represents the average of six to nine different cancer cell lines."}, "[2]": {"tested_on": "Renal cancer cell lines", "test": "NCI in vitro cytotoxicity, SRB assay, cancer type average", "format": "cell-based, human", "conditions": "average of six to nine cell lines", "protocol": "as §1, §2"}, "[3]": {"tested_on": "Melanoma cancer cell lines", "test": "NCI in vitro cytotoxicity, SRB assay, cancer type average", "format": "cell-based, human", "conditions": "average of six to nine cell lines", "protocol": "as §1, §2"}, "[4]": {"tested_on": "Ovarian cancer cell lines", "test": "NCI in vitro cytotoxicity, SRB assay, cancer type average", "format": "cell-based, human", "conditions": "average of six to nine cell lines", "protocol": "as §1, §2"}, "[5]": {"tested_on": "Colon cancer cell lines", "test": "NCI in vitro cytotoxicity, SRB assay, cancer type average", "format": "cell-based, human", "conditions": "average of six to nine cell lines", "protocol": "as §1, §2"}, "[6]": {"tested_on": "non-small-cell lung cancer cell lines", "test": "NCI in vitro cytotoxicity, SRB assay, cancer type average", "format": "cell-based, human", "conditions": "average of six to nine cell lines", "protocol": "as §1, §2"}, "[7]": {"tested_on": "CNS cancer cell lines", "test": "NCI in vitro cytotoxicity, SRB assay, cancer type average", "format": "cell-based, human", "conditions": "average of six to nine cell lines", "protocol": "as §1, §2"}, "[8]": {"tested_on": "sixty human tumour cells", "test": "NCI in vitro cytotoxicity, SRB assay, mean graph midpoints", "format": "cell-based", "conditions": "48 h continuous drug exposure", "protocol": "as §1"}, "[9]": {"tested_on": "MCF7 (Breast)", "test": "In vitro one dose primary anticancer assay", "format": "cell-based, human", "conditions": "one dose at 10^−4 molar concentration", "protocol": "as §1"}, "[10]": {"tested_on": "NCI-H460 (Lung)", "test": "In vitro one dose primary anticancer assay", "format": "cell-based, human", "conditions": "one dose at 10^−4 molar concentration", "protocol": "as §1"}, "[11]": {"tested_on": "SF-268 (CNS)", "test": "In vitro one dose primary anticancer assay", "format": "cell-based, human", "conditions": "one dose at 10^−4 molar concentration", "protocol": "as §1"}, "[12]": {"tested_on": "melanoma cancer cell line LOXIMVI", "test": "NCI in vitro cytotoxicity, SRB assay", "format": "cell-based, human", "conditions": "read-out: potency at the LC50 level", "protocol": "as §1"}, "[13]": {"tested_on": "colon cancer (HCC-2998)", "test": "NCI in vitro cytotoxicity, SRB assay", "format": "cell-based, human", "conditions": "HCC-2998 colon; read-out: potency at the LC50 level", "protocol": "as §1"}, "[14]": {"tested_on": "melanoma cancer (UACC-62)", "test": "NCI in vitro cytotoxicity, SRB assay", "format": "cell-based, human", "conditions": "UACC-62 melanoma; read-out: potency at the LC50 level", "protocol": "as §1"}, "[15]": {"tested_on": "CNS cancer (SNB-75)", "test": "NCI in vitro cytotoxicity, SRB assay", "format": "cell-based, human", "conditions": "SNB-75 CNS; read-out: potency at the LC50 level", "protocol": "as §1"}, "[16]": {"tested_on": "renal cancer (SN12C)", "test": "NCI in vitro cytotoxicity, SRB assay", "format": "cell-based, human", "conditions": "read-out: potency at the LC50 level", "protocol": "as §1"}, "[17]": {"tested_on": "melanoma cancer cell line M14", "test": "NCI in vitro cytotoxicity, SRB assay", "format": "cell-based, human", "conditions": "read-out: potency at the LC50 level", "protocol": "as §1"}, "[18]": {"tested_on": "breast cancer (MDA-MB-435)", "test": "NCI in vitro cytotoxicity, SRB assay", "format": "cell-based, human", "conditions": "MDA-MB-435 breast; read-out: potency at the LC50 level", "protocol": "as §1"}}, "data": [{"smiles": "COc1cc2c(cc1OCCCNC(=O)c1cccc3c(=O)c4ccccc4[nH]c13)N=C[C@@H]1CCCN1C2=O", "note": "[Compound IV, 7-methoxy-8-[3′-(4″-acridonylcarboxamido)propyl]-oxy-(11aS)1,2,3,11a-tetrahydro-5H-pyrrolo[2,1-c][1,4]benzodiazepin-5-one]", "values": [{"measurement": "Log LC50 (concentration in mol/L causing 50% lethality)", "setting": "[1]", "value": "−4.40", "unit": "mol/L"}, {"measurement": "Log LC50 (concentration in mol/L causing 50% lethality)", "setting": "[2]", "value": "−4.27", "unit": "mol/L"}, {"measurement": "Log LC50 (concentration in mol/L causing 50% lethality)", "setting": "[3]", "value": "−5.09", "unit": "mol/L"}, {"measurement": "Log LC50 (concentration in mol/L causing 50% lethality)", "setting": "[4]", "value": "−4.012 log(mol/L)"}, {"measurement": "Log LC50 (concentration in mol/L causing 50% lethality)", "setting": "[5]", "value": "−4.33", "unit": "mol/L"}, {"measurement": "Log LC50 (concentration in mol/L causing 50% lethality)", "setting": "[6]", "value": "−4.14 log10(mol/L)"}, {"measurement": "Log LC50 (concentration in mol/L causing 50% lethality)", "setting": "[7]", "value": "−4.425", "unit": "mol/L"}, {"measurement": "Log10 LC50 mean graph midpoint (MG_MID)", "setting": "[8]; 50% cell death", "value": "−4.32"}, {"measurement": "Log10 GI50 mean graph midpoint (MG_MID)", "setting": "[8]; 50% cell growth inhibition", "value": "−7.73"}, {"measurement": "Log10 TGI mean graph midpoint (MG_MID)", "setting": "[8]; total cell growth inhibition", "value": "−5.56"}, {"measurement": "Growth percentages (Breast) MCF7", "setting": "[9]", "value": 0, "unit": "%"}, {"measurement": "Growth percentages (Lung) NCI-H460", "setting": "[10]", "value": 0, "unit": "%"}, {"measurement": "Growth percentages (CNS) SF-268", "setting": "[11]", "value": 10, "unit": "%"}, {"measurement": "CC50", "setting": "[12]", "value": "> 10000", "unit": "nM"}, {"measurement": "LC50 (concentration killing 50% of cells)", "setting": "[13]", "value": 100, "unit": "nM"}, {"measurement": "LC50 (concentration causing 50% cell death)", "setting": "[14]", "value": "< 10", "unit": "nM"}, {"measurement": "LC50 (concentration causing 50% cell death)", "setting": "[15]", "value": 100, "unit": "nM"}, {"measurement": "LC50 (concentration causing 50% cell death)", "setting": "[16]", "value": "> 10000", "unit": "nM"}, {"measurement": "LC50", "setting": "[17]", "value": "> 10000", "unit": "nM"}, {"measurement": "CC50", "setting": "[18]", "value": 100, "unit": "nM"}]}]}
